Columns and labels:
[1] = system: Oryza sativa long grain rice variety LaKast; assay: Example 2 carbon dioxide in air bubbled into root zone of paddy rice: roots and foliage at 24 days; assay type: in vivo; conditions: for Dry Foliage Weight: total of ten plants; for Dry Root Weight: total of ten plants of one container; for % Difference in Total Nitrogen Uptake: vs air
Protocol: (§1) Example 2 tests were conducted to test whether carbon dioxide alone delivered to the roots of rice plants improves the rough rice yield and the root growth. For this example Oryza sativa long grain rice variety LaKast™ seed treated with CruiserMaxx® (an insecticide and fungicide) was carefully selected as representative of all rice grown commercially and provides an excellent model for testing commercial rice.
(§2) For the Example 2 tests, carbon dioxide diluted with air in selected amounts was bubbled into the root zone of paddy rice. The rice was planted in 18.9 L (5 gallon) containers which are 30.5 cm (12 inches) in diameter and 35.6 cm (14 inches) deep, and sets of 8 containers all received the same gas mixture. The tests were designed to end after 17 weeks, but some containers were removed earlier to visually check the roots for amount of growth.
(§3) For the Example 2 tests, the following gas mixtures were used: Air • 0.2% carbon dioxide in air • 0.5% carbon dioxide in air • 1.0% carbon dioxide in air • 2.0% carbon dioxide in air • 5.0% carbon dioxide in air • Note: 0.2% is approximately 5 times the amount of carbon dioxide currently found naturally in air
(§4) 18.9 L (5 gallon) containers were prepared by placing an aquatic gas diffuser attached to tubing at the bottom of each container and then filling the container 10.2 cm (4 inches) from the top with sieved top soil. The containers were placed on tables in a greenhouse in groups of eight so that all received approximately the same amount of light. Each group of eight containers was attached to a tank of gas with the gas being supplied through a regulator to a flow meter and then to a set of eight valves with each one controlling the gas mixture to a single container. A total of forty-eight containers were prepared, and twenty-four containers were placed on each table. Starter phosphorus was added to the soil by mixing 1.7 g of triple super phosphate into the top 7.6 cm (3 inches) of soil in each container. Soil was also given addition starter fertilizer by dissolving 150 g of urea (for nitrogen), 132 g of potassium chloride (for potassium), and 1236 g of Epsom salts (magnesium sulfate heptahydrate for magnesium) in 12 liters of water. Each container was then given 200 mL of this solution. Later, zinc was added using zinc sulfate. The containers were flooded to 1.3 cm (0.5 inches) above the surface of the soil using collected rainwater. On May 20, 2016, the rice seed was presoaked for 24 hours and then drained for 24 hours was dropped on the surface of the soil in each container. After the rice was established, the plants were thinned to 10 plants per container. At a later date, the plants were thinned again to six plants per container. The gas mixtures to the containers were started on May 20, 2016 and adjusted to an initial flow meter setting of 42.5 liters/hr. (1.5 ft^3/hr.) with a steady flow of bubbles in each container. The flow rate was turned down to 14.2 liters/hr. (0.5 ft^3/hr.) on Jun. 14, 2016. The gas flow was supplied each weekday from 8:00 am to noon. During the testing, fans in the greenhouse created a constant airflow to prevent carbon dioxide concentration around a particular group of plants.
On May 25, 2016, 10.6 g of zinc sulfate was dissolved in 10 L of water and each container was given 200 mL of this solution. As the plants grew, the flood waters were gradually raised until they reached a depth of three inches above the soil surface. A flood water depth of 5.1 to 7.6 cm (2 to 3 inches) was maintained for the remainder of the test. On Jun. 13, 2016, one front container (containing 10 plants each) for each level of carbon dioxide was withdrawn for measurement and the plants were gently removed and thoroughly cleaned. The plants and roots were then dried in an oven overnight at 80° C. The next day, the roots were trimmed and weighed. Table 6 presents the total root weights and total foliage weights of the ten plants for each container of plants. […]

[2] = system: Oryza sativa long grain rice variety LaKast; assay: Example 2 carbon dioxide in air bubbled into root zone of paddy rice: root weights and rough rice yield at harvest; assay type: in vivo; conditions: for % Difference (root weight vs Air) / Dry Root Weight: at harvest; for Dry Root Weight: average of two containers; for Rough Rice Yield Weight: dry weight at harvest
Protocol: as §1, §2, §3, §4
On Jun. 20, 2016, the rice plants of Example 2 were thinned to six plants per container. On Aug. 1, 2016, additional nitrogen and triple super phosphate (TSP) was added to each container at the rate of 0.57 g TSP in all containers, 0.87 g of urea per container being fed normal air, and 2.27 g ammonium bicarbonate (equivalent nitrogen content as 0.87 g of urea) for the rest of the containers. This introduction of nitrogen and phosphates was to ensure no limitation in nitrogen and phosphorus for the plants and therefore ensure the testing validity of introducing carbon dioxide as a gas to the roots of the plants.
The rough rice for the Example 2 tests was harvested on Sep. 19, 2016. The rough rice was separated, and dried for seven days at 40° C. […]

O=C=O [CO2, carbon dioxide]
% Difference of Root Weight as Compared to Air ([1]; 0.5% CO2 in air): 0%
Total Nitrogen Uptake by Foliage ([1]; 0.5% CO2 in air): 0.156 g
Dry Foliage Weight ([1]; 0.5% CO2 in air): 3.48 g
Dry Root Weight ([1]; 0.5% CO2 in air): 1.26 g
% Difference in Total Nitrogen Uptake ([1]; 0.5% CO2 in air): 8.33%
Total Nitrogen Uptake by Foliage ([1]; 2.0% CO2 in air): 0.151 g
Dry Foliage Weight ([1]; 2.0% CO2 in air): 3.43 g
Dry Root Weight ([1]; 2.0% CO2 in air): 2.08 g
% Difference in Total Nitrogen Uptake ([1]; 2.0% CO2 in air): 4.86%
weight of the foliage compared with container receiving solely air ([1]; each container receiving elevated carbon dioxide, in words): slightly more
% Difference (rough rice yield vs Air) ([2]; 0.2% CO2 in air): 2.9%
% Difference (root weight vs Air) ([2]; 0.2% CO2 in air): +35.8%
Dry Root Weight ([2]; 0.2% CO2 in air): 62.5 g
Rough Rice Yield Weight ([2]; 0.2% CO2 in air): 91.5 g
% Difference (rough rice yield vs Air) ([2]; 0.5% CO2 in air): 6.1%
% Difference (root weight vs Air) ([2]; 0.5% CO2 in air): +6.4%
Dry Root Weight ([2]; 0.5% CO2 in air): 49.0 g
Rough Rice Yield Weight ([2]; 0.5% CO2 in air): 94.3 g
% Difference (rough rice yield vs Air) ([2]; 1.0% CO2 in air): 11.9%
% Difference (root weight vs Air) ([2]; 1.0% CO2 in air): +9.6%
Dry Root Weight ([2]; 1.0% CO2 in air): 50.4 g
Rough Rice Yield Weight ([2]; 1.0% CO2 in air): 99.5 g
% Difference (rough rice yield vs Air) ([2]; 2.0% CO2 in air): 11.9%
% Difference (root weight vs Air) ([2]; 2.0% CO2 in air): +11.1%
Dry Root Weight ([2]; 2.0% CO2 in air): 51.1 g
Rough Rice Yield Weight ([2]; 2.0% CO2 in air): 99.5 g
% Difference (rough rice yield vs Air) ([2]; 5.0% CO2 in air): −3.0%
% Difference (root weight vs Air) ([2]; 5.0% CO2 in air): +20.7%
Dry Root Weight ([2]; 5.0% CO2 in air): 55.5 g
Rough Rice Yield Weight ([2]; 5.0% CO2 in air): 86.2 g
average root weights at harvest compared with plants receiving just air ([2]; all containers receiving elevated carbon dioxide at roots, in words): higher
grain yields compared with plants receiving just air ([2]; elevated carbon dioxide, with the exception of 5.0% carbon dioxide mixed with air, in words): higher
